# Reference: ChEMBL document CHEMBL4428109, “Structure-activity relationship studies of non-carboxylic acid peroxisome proliferator-activated receptor α/δ (PPARα/δ) dual agonists” (Bioorg Med Chem, 2016)
# pEC50: −log10 of the molar value. Calls of active or inactive are those of the source. No cut-off for these calls is given here.
# Legend:
# [1] = target: T1, Peroxisome proliferator-activated receptor alpha (Homo sapiens) (UniProt Q07869); assay: Agonist activity at N-terminal Gal4 fused human PPARalpha LBD transfected in HEK293 cells at < 10 uM after 24 hrs by luciferase reporter gene assay; assay type: cell-based
# T1 sequence (whole entry): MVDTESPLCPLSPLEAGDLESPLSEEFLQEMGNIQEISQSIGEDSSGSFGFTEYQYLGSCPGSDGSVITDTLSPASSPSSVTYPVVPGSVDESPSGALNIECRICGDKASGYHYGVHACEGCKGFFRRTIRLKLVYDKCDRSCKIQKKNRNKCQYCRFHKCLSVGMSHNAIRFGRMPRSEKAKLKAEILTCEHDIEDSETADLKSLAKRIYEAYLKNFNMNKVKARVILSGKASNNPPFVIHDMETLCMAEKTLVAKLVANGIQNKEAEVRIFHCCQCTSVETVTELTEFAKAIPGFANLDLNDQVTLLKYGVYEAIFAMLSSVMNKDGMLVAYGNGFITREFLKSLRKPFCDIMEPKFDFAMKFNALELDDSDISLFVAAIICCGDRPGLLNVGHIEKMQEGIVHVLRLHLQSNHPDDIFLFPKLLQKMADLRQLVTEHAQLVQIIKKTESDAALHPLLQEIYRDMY
# [2] = target: T2, Peroxisome proliferator-activated receptor delta (Homo sapiens) (UniProt Q03181); assay: Agonist activity at N-terminal Gal4 fused human PPARdelta LBD transfected in HEK293 cells at < 10 uM after 24 hrs by luciferase reporter gene assay; assay type: cell-based
# T2 sequence (whole entry): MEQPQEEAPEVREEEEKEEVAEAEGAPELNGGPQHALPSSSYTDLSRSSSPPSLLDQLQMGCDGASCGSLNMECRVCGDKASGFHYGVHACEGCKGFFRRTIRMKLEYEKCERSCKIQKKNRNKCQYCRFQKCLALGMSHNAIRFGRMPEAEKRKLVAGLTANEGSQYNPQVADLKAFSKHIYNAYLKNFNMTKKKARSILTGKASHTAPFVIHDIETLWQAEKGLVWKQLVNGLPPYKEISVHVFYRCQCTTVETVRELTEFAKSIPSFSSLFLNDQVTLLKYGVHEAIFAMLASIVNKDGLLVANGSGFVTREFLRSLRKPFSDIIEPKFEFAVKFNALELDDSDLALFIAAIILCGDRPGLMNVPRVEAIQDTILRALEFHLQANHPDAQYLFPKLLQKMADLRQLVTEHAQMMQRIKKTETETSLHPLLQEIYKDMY
# [3] = target: T1, Peroxisome proliferator-activated receptor alpha (Homo sapiens); assay: Agonist activity at N-terminal Gal4 fused human PPARalpha LBD transfected in HEK293 cells after 24 hrs by luciferase reporter gene assay relative to GW7647; assay type: cell-based
# [4] = target: T3, Peroxisome proliferator-activated receptor alpha (Homo sapiens, UniProt Q07869); assay: Agonist activity at N-terminal Gal4 fused human PPARalpha LBD transfected in HEK293 cells after 24 hrs by luciferase reporter gene assay; assay type: cell-based
# T3 sequence (Q07869 whole entry): T1 sequence (whole entry)
# [5] = target: T4, Peroxisome proliferator-activated receptor delta (Homo sapiens, UniProt Q03181); assay: Agonist activity at N-terminal Gal4 fused human PPARdelta LBD transfected in HEK293 cells after 24 hrs by luciferase reporter gene assay; assay type: cell-based
# T4 sequence (Q03181 whole entry): T2 sequence (whole entry)
# [6] = target: T5, Peroxisome proliferator-activated receptor gamma (Homo sapiens) (UniProt P37231); assay: Agonist activity at N-terminal Gal4 fused human PPARgamma LBD transfected in HEK293 cells at < 10 uM after 24 hrs by luciferase reporter gene assay; assay type: cell-based
# T5 sequence (whole entry): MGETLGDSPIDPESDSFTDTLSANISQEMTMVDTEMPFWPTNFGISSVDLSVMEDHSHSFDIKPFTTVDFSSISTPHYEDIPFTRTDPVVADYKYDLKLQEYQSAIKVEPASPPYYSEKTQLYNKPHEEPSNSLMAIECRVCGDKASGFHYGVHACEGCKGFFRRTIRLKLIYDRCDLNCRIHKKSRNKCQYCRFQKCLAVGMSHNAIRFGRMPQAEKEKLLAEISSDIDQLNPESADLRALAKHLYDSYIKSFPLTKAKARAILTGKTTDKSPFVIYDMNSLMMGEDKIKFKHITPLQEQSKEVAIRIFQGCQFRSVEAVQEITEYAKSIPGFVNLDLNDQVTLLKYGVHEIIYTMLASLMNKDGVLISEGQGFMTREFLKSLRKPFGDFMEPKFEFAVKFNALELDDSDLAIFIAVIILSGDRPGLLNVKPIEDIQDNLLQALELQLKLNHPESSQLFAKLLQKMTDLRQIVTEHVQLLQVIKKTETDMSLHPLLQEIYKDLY
# [7] = target: T2, Peroxisome proliferator-activated receptor delta (Homo sapiens); assay: Agonist activity at N-terminal Gal4 fused human PPARdelta LBD transfected in HEK293 cells after 24 hrs by luciferase reporter gene assay relative to GW501516; assay type: cell-based
# [8] = target: T6, Retinoic acid receptor RXR-alpha (Homo sapiens) (UniProt P19793); assay: Agonist activity at RXRalpha (unknown origin) at < 20 uM
# T6 sequence (whole entry): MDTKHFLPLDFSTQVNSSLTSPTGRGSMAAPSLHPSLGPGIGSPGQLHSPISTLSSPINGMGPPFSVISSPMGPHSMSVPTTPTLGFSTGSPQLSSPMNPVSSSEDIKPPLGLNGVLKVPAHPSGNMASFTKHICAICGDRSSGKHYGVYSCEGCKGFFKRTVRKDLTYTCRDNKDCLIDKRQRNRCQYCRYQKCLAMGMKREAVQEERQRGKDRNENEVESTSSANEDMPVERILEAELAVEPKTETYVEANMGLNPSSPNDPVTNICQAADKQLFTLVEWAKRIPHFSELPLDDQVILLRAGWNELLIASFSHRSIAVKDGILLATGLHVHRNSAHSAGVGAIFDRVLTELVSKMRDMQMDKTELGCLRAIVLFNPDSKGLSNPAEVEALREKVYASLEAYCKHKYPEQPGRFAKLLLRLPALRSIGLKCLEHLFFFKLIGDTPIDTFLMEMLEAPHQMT
# [9] = target: T7, Retinoic acid receptor RXR-beta (Homo sapiens) (UniProt P28702); assay: Agonist activity at RXRbeta (unknown origin) at < 20 uM
# T7 sequence (whole entry): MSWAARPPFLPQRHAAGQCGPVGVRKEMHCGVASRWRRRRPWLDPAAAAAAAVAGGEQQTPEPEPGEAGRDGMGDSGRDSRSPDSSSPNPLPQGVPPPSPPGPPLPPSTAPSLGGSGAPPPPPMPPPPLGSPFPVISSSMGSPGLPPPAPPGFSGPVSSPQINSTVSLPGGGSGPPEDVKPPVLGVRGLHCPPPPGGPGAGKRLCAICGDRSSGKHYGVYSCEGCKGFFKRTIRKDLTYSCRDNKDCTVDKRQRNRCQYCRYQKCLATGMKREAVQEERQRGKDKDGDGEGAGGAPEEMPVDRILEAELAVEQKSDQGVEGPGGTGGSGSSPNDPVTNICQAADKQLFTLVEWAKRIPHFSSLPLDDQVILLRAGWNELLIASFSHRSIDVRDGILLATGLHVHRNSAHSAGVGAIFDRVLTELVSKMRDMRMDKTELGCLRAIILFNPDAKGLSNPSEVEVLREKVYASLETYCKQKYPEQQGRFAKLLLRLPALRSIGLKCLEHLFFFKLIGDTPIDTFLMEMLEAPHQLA
# [10] = target: T8, Retinoic acid receptor RXR-gamma (Homo sapiens) (UniProt P48443); assay: Agonist activity at RXRgamma (unknown origin) at < 20 uM
# T8 sequence (whole entry): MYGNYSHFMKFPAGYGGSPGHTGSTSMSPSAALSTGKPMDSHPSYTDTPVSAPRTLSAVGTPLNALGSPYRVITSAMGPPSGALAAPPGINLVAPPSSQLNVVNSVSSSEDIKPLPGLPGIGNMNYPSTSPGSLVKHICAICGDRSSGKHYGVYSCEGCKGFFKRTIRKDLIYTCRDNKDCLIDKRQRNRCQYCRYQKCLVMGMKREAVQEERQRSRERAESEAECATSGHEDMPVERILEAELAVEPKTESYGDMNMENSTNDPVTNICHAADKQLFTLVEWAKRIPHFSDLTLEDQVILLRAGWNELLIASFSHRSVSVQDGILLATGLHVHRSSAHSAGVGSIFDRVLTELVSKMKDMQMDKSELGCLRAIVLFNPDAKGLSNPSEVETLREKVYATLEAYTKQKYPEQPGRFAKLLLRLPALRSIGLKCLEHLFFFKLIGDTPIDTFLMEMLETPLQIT
# [11] = target: T9, Oxysterols receptor LXR-alpha (Homo sapiens) (UniProt Q13133); assay: Agonist activity at LXRalpha (unknown origin) at < 20 uM
# T9 sequence (whole entry): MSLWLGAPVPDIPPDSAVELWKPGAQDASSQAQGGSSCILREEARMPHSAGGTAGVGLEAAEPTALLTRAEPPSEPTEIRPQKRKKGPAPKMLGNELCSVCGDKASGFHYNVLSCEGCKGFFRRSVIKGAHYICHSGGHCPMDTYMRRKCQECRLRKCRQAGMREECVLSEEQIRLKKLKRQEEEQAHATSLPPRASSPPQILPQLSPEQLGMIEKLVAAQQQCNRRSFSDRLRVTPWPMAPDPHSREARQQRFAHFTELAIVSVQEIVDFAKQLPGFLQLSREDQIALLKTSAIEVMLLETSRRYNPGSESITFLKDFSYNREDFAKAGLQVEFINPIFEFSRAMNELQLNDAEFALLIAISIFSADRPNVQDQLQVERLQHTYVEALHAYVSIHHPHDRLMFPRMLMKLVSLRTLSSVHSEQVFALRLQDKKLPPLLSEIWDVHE
# [12] = target: T10, Oxysterols receptor LXR-beta (Homo sapiens) (UniProt P55055); assay: Agonist activity at LXRbeta (unknown origin) at < 20 uM
# T10 sequence (whole entry): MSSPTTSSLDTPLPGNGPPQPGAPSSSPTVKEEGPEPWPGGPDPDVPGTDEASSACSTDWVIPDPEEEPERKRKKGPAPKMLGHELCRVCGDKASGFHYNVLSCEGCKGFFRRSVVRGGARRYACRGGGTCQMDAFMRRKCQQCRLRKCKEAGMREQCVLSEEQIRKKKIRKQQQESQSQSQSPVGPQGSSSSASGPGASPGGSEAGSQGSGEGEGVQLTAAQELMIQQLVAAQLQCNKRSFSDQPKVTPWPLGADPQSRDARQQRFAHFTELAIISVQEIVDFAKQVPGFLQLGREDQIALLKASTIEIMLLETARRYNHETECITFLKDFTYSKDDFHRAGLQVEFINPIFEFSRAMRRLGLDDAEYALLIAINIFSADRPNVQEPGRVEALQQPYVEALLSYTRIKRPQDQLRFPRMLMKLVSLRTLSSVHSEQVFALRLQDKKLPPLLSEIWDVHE
# [13] = target: T11, Bile acid receptor (Homo sapiens) (UniProt Q96RI1); assay: Agonist activity at FXR (unknown origin) at < 20 uM
# T11 sequence (whole entry): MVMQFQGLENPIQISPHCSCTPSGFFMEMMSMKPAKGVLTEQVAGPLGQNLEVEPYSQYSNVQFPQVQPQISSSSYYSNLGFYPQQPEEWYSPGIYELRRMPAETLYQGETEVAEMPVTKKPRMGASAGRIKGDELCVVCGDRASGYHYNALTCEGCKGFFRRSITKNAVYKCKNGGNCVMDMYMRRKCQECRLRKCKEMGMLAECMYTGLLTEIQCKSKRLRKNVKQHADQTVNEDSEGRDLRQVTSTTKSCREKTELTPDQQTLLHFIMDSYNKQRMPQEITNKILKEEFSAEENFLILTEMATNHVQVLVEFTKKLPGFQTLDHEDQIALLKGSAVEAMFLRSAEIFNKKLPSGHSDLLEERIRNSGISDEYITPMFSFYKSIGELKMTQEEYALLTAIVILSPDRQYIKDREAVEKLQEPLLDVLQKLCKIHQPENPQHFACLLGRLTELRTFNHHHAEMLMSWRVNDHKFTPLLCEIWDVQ
SMILES,Activity [1],Emax [3] [%],pEC50 [4],pEC50 [5],Emax [7] [%],further results
CCC(NC(C)=O)c1nc(-c2ccc(Oc3ccc(OCc4ccccc4)cc3)cc2)no1 (stereo not given),–,10 to 40,6.89,6.96,5 to 15,Activity [6]: inactive
CC(=O)NC(C)c1nc(-c2ccc(Oc3ccc(O)cc3)cc2)no1 (stereo not given),–,–,–,–,–,Activity [8]: inactive; Activity [9]: inactive; Activity [10]: inactive; Activity [11]: inactive; Activity [12]: inactive; Activity [13]: inactive
CC(N)c1nc(-c2ccc(Oc3ccc(OCc4ccccc4)cc3)cc2)no1 (stereo not given),inactive,–,–,–,–,–

# Further lines, with some results ahead:
Activity [1],Emax [3] [%],pEC50 [4],pEC50 [5],Emax [7] [%],SMILES,further results
inactive,10 to 40,–,–,–,CC(=O)N[C@H](C)c1nc(-c2ccc(Oc3ccc(OCc4ccccc4)cc3)cc2)no1,Activity [2]: inactive
–,10 to 40,7.77,7.64,5 to 15,CC(=O)N[C@@H](C)c1nc(-c2ccc(Oc3ccc(OCc4ccccc4)cc3)cc2)no1,–
inactive,–,–,–,–,CC(NC(=O)OC(C)(C)C)c1nc(-c2ccc(Oc3ccc(OCc4ccccc4)cc3)cc2)no1 (stereo not given),–
